Laboratory results from ChEMBL document CHEMBL3507680, “University of Dundee, Gates Library screen for HepG2 cell viability”.

Assay: Human HepG2 cell viability assay in 384 well format
Assay type: toxicity, cell-based
Set-up: dose 125 nL, time 70.5 hour; concentration not given beside the values
Conditions: HepG2 cells, read-out: Inhibition

**Q.** For `Cn1c(C2CC2)nc2c1CCN(CCOc1ccc(C#N)cc1)C2`, which cytotoxicity at 70.5 h is on record?
**A.** Its cytotoxicity at 70.5 h is -9.07%.

**Q.** For `CN(C)[C@H]1CN(C(=O)CCc2cccc(F)c2)C[C@@H]1C1CC1`, which cytotoxicity at 70.5 h is on record?
**A.** Its cytotoxicity at 70.5 h is -5.67%.

**Q.** For `O=S(=O)(c1cccs1)N1CCCC(c2nccs2)C1` (stereo unspecified), which cytotoxicity at 70.5 h is on record?
**A.** Its cytotoxicity at 70.5 h is -3.29%.

**Q.** For `Cc1nc(CN2CCN(c3ncnc4ccccc34)CC2)no1`, which cytotoxicity at 70.5 h is on record?
**A.** Its cytotoxicity at 70.5 h is 4.67%.

**Q.** With `CN1CCCN(C[C@@H]2CN(C(=O)CCc3cn[nH]c3)C[C@@H]2CO)CC1` as the compound, how does the cytotoxicity at 70.5 h read?
**A.** The cytotoxicity at 70.5 h was -3.81%.

**Q.** Which cytotoxicity at 70.5 h does the source give for `CC(NCc1ccc(F)cc1)c1ccc(OCC(=O)NC2CC2)cc1` (stereo unspecified) here?
**A.** The cytotoxicity at 70.5 h was 25.6%.

**Q.** For `c1ccc(OCCN2CCC(n3cncn3)CC2)cc1`, which cytotoxicity at 70.5 h is on record?
**A.** The cytotoxicity at 70.5 h was 25.3%.

**Q.** With `COc1cc2c(cc1CN1CCC3(CCCN(C)C3=O)C1)OCCO2` (stereo unspecified) as the compound, how does the cytotoxicity at 70.5 h read?
**A.** Its cytotoxicity at 70.5 h is -15.9%.

**Q.** With `COc1ccc(F)c(-c2cc(C)nc(N)n2)c1` as the compound, how does the cytotoxicity at 70.5 h read?
**A.** The cytotoxicity at 70.5 h was -7.05%.

**Q.** With `COc1cccc(CN2CCCC2Cn2nc(C)nc2C)c1` (stereo unspecified) as the compound, how does the cytotoxicity at 70.5 h read?
**A.** The cytotoxicity at 70.5 h was 3.03%.

**Q.** For `CCN1CCn2nc(CCC(=O)N3CCCC3)cc2C1`, which cytotoxicity at 70.5 h is on record?
**A.** The cytotoxicity at 70.5 h was -4.63%.

**Q.** Which cytotoxicity at 70.5 h does the source give for `O=C(Cc1ccsc1)N1CCOC(c2nc(-c3ncccn3)no2)C1` (stereo unspecified) here?
**A.** Its cytotoxicity at 70.5 h is -2.86%.

**Q.** For `CC(C)N1CCC(Nc2ccn(CCC#N)n2)C1=O` (stereo unspecified), which cytotoxicity at 70.5 h is on record?
**A.** The cytotoxicity at 70.5 h was -2.6%.

**Q.** Which cytotoxicity at 70.5 h does the source give for `COCC(=O)N1CCC(c2nc3ccc(N4CCOCC4)cn3n2)CC1` here?
**A.** Its cytotoxicity at 70.5 h is -2.79%.

**Q.** Which cytotoxicity at 70.5 h does the source give for `CC(C)(C)OC(=O)N1CCC(C(=O)NC2CCS(=O)(=O)C2)CC1` (stereo unspecified) here?
**A.** Its cytotoxicity at 70.5 h is -6.28%.

**Q.** With `COc1ncnc(N(C)C)c1NC(=O)c1cscc1C` as the compound, how does the cytotoxicity at 70.5 h read?
**A.** The cytotoxicity at 70.5 h was -9.9%.

**Q.** Which cytotoxicity at 70.5 h does the source give for `Cc1cc2c(=O)n(CCSc3ncn[nH]3)cnc2s1` here?
**A.** Its cytotoxicity at 70.5 h is -7.44%.

**Q.** For `O=C(Cc1cccs1)N1C[C@@H]2COC[C@]2(COc2cccnc2)C1`, which cytotoxicity at 70.5 h is on record?
**A.** Its cytotoxicity at 70.5 h is -1.72%.

**Q.** With `O=C(CC1=CCCCC1)NCc1ccnc(OC2CCOCC2)c1` as the compound, how does the cytotoxicity at 70.5 h read?
**A.** Its cytotoxicity at 70.5 h is -6.35%.

**Q.** Which cytotoxicity at 70.5 h does the source give for `COCCN1CCO[C@@H]2CN(C(=O)Cc3cccc(F)c3)CC[C@@H]2C1` here?
**A.** The cytotoxicity at 70.5 h was -0.585%.

**Q.** Which cytotoxicity at 70.5 h does the source give for `Fc1ccc(CN2CCC3(CC2)CN(c2ccccn2)CCO3)cc1` here?
**A.** Its cytotoxicity at 70.5 h is 2.69%.

**Q.** Which cytotoxicity at 70.5 h does the source give for `Cc1noc(C)c1C(C)NC(=O)N1CCC(NC(=O)c2ccsc2)CC1` (stereo unspecified) here?
**A.** Its cytotoxicity at 70.5 h is -6.79%.

**Q.** For `CCN(Cc1ccccc1O)CC1(C)Cc2c(N)nc(N)nc2O1` (stereo unspecified), which cytotoxicity at 70.5 h is on record?
**A.** Its cytotoxicity at 70.5 h is -3.26%.

**Q.** Which cytotoxicity at 70.5 h does the source give for `CC(C)NC(=O)N1CCC2(CC1)NC(=O)CC2c1ccncc1` (stereo unspecified) here?
**A.** The cytotoxicity at 70.5 h was -1.45%.

**Q.** With `CCN(CC)CCCNCc1cc2cccc(C)c2[nH]c1=O` as the compound, how does the cytotoxicity at 70.5 h read?
**A.** Its cytotoxicity at 70.5 h is -4.69%.

**Q.** For `COCc1nc(C(=O)N2CCCC2Cn2cc(C)cn2)cs1` (stereo unspecified), which cytotoxicity at 70.5 h is on record?
**A.** The cytotoxicity at 70.5 h was -6.43%.

**Q.** With `CC(C)CN1C(=O)CO[C@@H]2CN(C(=O)N3CCOCC3)C[C@H]21` as the compound, how does the cytotoxicity at 70.5 h read?
**A.** Its cytotoxicity at 70.5 h is -2.58%.

**Q.** For `N#Cc1cccc(NC2CC(=O)N(Cc3ccccc3Cl)C2)n1` (stereo unspecified), which cytotoxicity at 70.5 h is on record?
**A.** The cytotoxicity at 70.5 h was 18.9%.

**Q.** For `Cc1occc(=O)c1OCc1noc(C(=O)NCC2CC2)n1`, which cytotoxicity at 70.5 h is on record?
**A.** Its cytotoxicity at 70.5 h is -16.6%.

**Q.** For `CCN(CC)C(=O)C1CCC2(CCNCC2)O1` (stereo unspecified), which cytotoxicity at 70.5 h is on record?
**A.** Its cytotoxicity at 70.5 h is -12.5%.

**Q.** For `CCN(CC)S(=O)(=O)c1ccc(OC)c(NC(=O)CSC)c1`, which cytotoxicity at 70.5 h is on record?
**A.** Its cytotoxicity at 70.5 h is 12.2%.

**Q.** With `O=C(NCCc1cccnc1)C1CCCN(Cc2ccco2)C1` (stereo unspecified) as the compound, how does the cytotoxicity at 70.5 h read?
**A.** The cytotoxicity at 70.5 h was 16.1%.

**Q.** Which cytotoxicity at 70.5 h does the source give for `O=C1COc2cc(C(=O)NS(=O)(=O)c3cc(Cl)ccc3Cl)ccc2N1` here?
**A.** The cytotoxicity at 70.5 h was -8.05%.

**Q.** Which cytotoxicity at 70.5 h does the source give for `COc1ccc(NC(=O)N2CCCC2c2ccco2)cc1OC` (stereo unspecified) here?
**A.** Its cytotoxicity at 70.5 h is -0.202%.

**Q.** With `CN(C(=O)C1CCOCC1)[C@@H]1CCC[C@@H](N2CCCC2)[C@@H]1O` as the compound, how does the cytotoxicity at 70.5 h read?
**A.** Its cytotoxicity at 70.5 h is -3.82%.

**Q.** With `NC(=O)COc1ccc(C(=O)NCCc2ccco2)cc1` as the compound, how does the cytotoxicity at 70.5 h read?
**A.** Its cytotoxicity at 70.5 h is -5.22%.

**Q.** With `CCOCCCC(=O)NCc1ccc(N2CCCCC2)cc1` as the compound, how does the cytotoxicity at 70.5 h read?
**A.** The cytotoxicity at 70.5 h was -11.1%.

**Q.** Which cytotoxicity at 70.5 h does the source give for `O=C(NC1CC1)c1ccc(SCc2cscn2)cc1` here?
**A.** The cytotoxicity at 70.5 h was -9.79%.

**Q.** For `CC(O)c1cn(CC2CCN(C(=O)c3cscn3)CC2)nn1` (stereo unspecified), which cytotoxicity at 70.5 h is on record?
**A.** Its cytotoxicity at 70.5 h is -3.74%.

**Q.** With `O=C(N[C@H]1CCCC[C@@H]1O)c1cccc(-c2nc3ccccc3[nH]2)c1` as the compound, how does the cytotoxicity at 70.5 h read?
**A.** The cytotoxicity at 70.5 h was -2.51%.

**Q.** Which cytotoxicity at 70.5 h does the source give for `CCn1ccnc1CN(C)C(C(=O)O)c1ccc(C(C)(C)C#N)cc1` (stereo unspecified) here?
**A.** The cytotoxicity at 70.5 h was -4.97%.

**Q.** With `Cc1cc(C)n(Cc2cccc(C(=O)NCCSCC(C)(C)O)c2)n1` as the compound, how does the cytotoxicity at 70.5 h read?
**A.** Its cytotoxicity at 70.5 h is -3.16%.

**Q.** For `CC1c2ncc(COc3cccnc3)n2CCN1C(=O)C1=CCCC1` (stereo unspecified), which cytotoxicity at 70.5 h is on record?
**A.** The cytotoxicity at 70.5 h was -9.18%.

**Q.** For `c1ccc(OCC2CC3(CCN(c4ncccn4)CC3)CO2)nc1` (stereo unspecified), which cytotoxicity at 70.5 h is on record?
**A.** Its cytotoxicity at 70.5 h is -19.6%.

**Q.** Which cytotoxicity at 70.5 h does the source give for `O=C(NCC1CC1)C1=NOC2(CCN(Cc3ccc4c(c3)OCO4)C2)C1` (stereo unspecified) here?
**A.** Its cytotoxicity at 70.5 h is -5.94%.

**Q.** For `O=C(CN1C(=O)CCNC1=O)N1CCOC(c2ccc(F)cc2)C1` (stereo unspecified), which cytotoxicity at 70.5 h is on record?
**A.** Its cytotoxicity at 70.5 h is -2.25%.

**Q.** Which cytotoxicity at 70.5 h does the source give for `Cc1nn2cccnc2c1C(=O)NCc1ccccc1OC1CCC1` here?
**A.** The cytotoxicity at 70.5 h was -4.01%.

**Q.** Which cytotoxicity at 70.5 h does the source give for `N#Cc1ccccc1CC1CCCS(=O)(=O)C1` (stereo unspecified) here?
**A.** Its cytotoxicity at 70.5 h is 1.43%.

**Q.** Which cytotoxicity at 70.5 h does the source give for `CSCCC(=O)N(C/C=C/c1ccccc1)CCO` here?
**A.** Its cytotoxicity at 70.5 h is -5.02%.

**Q.** Which cytotoxicity at 70.5 h does the source give for `Cc1nn(C)c(C)c1C1CCCN1C(=O)c1ccc(N(C)C)nn1` (stereo unspecified) here?
**A.** The cytotoxicity at 70.5 h was -6.36%.

**Q.** Which cytotoxicity at 70.5 h does the source give for `O=C(Nc1cccnc1)[C@H]1CN(Cc2nccs2)C[C@H]2OCC[C@@H]12` here?
**A.** Its cytotoxicity at 70.5 h is 35.5%.

**Q.** For `CN(Cc1cccc(OC(F)F)c1)Cc1nc2c(cnn2C)c(=O)[nH]1`, which cytotoxicity at 70.5 h is on record?
**A.** Its cytotoxicity at 70.5 h is 2.1%.

**Q.** For `COc1ccc2c(c1)C(C(=O)N(C)CCn1ccnc1C)CC(=O)N2` (stereo unspecified), which cytotoxicity at 70.5 h is on record?
**A.** The cytotoxicity at 70.5 h was -3.22%.

**Q.** With `CCC1=N[C@@]2(CC[C@@H]3CN(Cc4ccccc4C)C[C@@H]32)C(=O)N1` as the compound, how does the cytotoxicity at 70.5 h read?
**A.** Its cytotoxicity at 70.5 h is -4.43%.

**Q.** With `COc1ccc(S(=O)(=O)C(F)(F)F)cc1NC(=O)CSCC#N` as the compound, how does the cytotoxicity at 70.5 h read?
**A.** The cytotoxicity at 70.5 h was 1.04%.

**Q.** With `Cc1csc(NC(=O)C2(C)CCCO2)n1` (stereo unspecified) as the compound, how does the cytotoxicity at 70.5 h read?
**A.** Its cytotoxicity at 70.5 h is -7.86%.
